Values of other authors in article PMC4340357 (Journal of Chemical Information and Modeling, 2015).

Target: C. perfringens neuraminidase
Conditions: read-out: IC50 against C. perfringens neuraminidase

CC(C)=CCc1c(O)c(CC=C(C)C)c2oc3c(O)ccc(O)c3c(=O)c2c1O [Gartanin]
IC50: 2900 ± 300 nM
